Measured values published in US20060270631A1, “Methods for the treatment and prevention of angiogenic diseases” (priority 2005, published 2006).

Assays:
endogenous SK [1] = experiment: Cellular S1P formation assay in HFLS-RA cells; format: cell-based, human; settings: read-out: drug concentration that decreases S1P formation by 50%
Procedure: (§1) Cellular S1P formation assay. Cells were grown to confluency in 24-well tissue culture plates and serum-starved for 24 hours as described above. Cells were then treated with 1% DMSO (as the drug vehicle), 20 μM dimethylsphingosine, or the indicated concentration of an SK inhibitor for 4 hours. The cells were then incubated with [^3H]sphingosine for 15 minutes, and the formation of [^3H]S1P was measured as previously described (French et al., Cancer Res 63: 5962 (2003)). In some assays, the cells were serum-starved for 24 hours and then treated with VEGF (50 ng/mL) alone or in the presence of an SK inhibitor for an additional 12 hours. [^3 H]Sphingosine was then added for 15 minutes, and its conversion to [^3H]S1P was measured as indicated above.
A cell-based assay in which the phosphorylation of exogenously added [^3H]sphingosine to [^3H]S1P by endogenous SK can be quantified (French et al., Cancer Res 63: 5962 (2003)) was used to evaluate the effects of test compounds on the activity of SK in intact cells. In this assay, cells are incubated with [^3 H]sphingosine for an appropriate period of time, and then [^3H]sphingosine and [^3H]S1P (formed by endogenous SK activity) are separated by extraction and levels of both species are determined by scintillation counting. […] Similarly, the enzymatic activity of SK in bovine RECs, and its sensitivity to SK inhibitors were assessed. […]

human RECs = experiment: Matrigel microvessel (tube) formation by human RECs; format: cell-based; settings: control and VEGF-treated (50 ng/mL) cultures, 18 hours
Procedure: Since VEGF-mediated angiogenesis and vascular leakage are critical processes in the pathology of diabetic retinopathy, we evaluated the effects of Compound II on the VEGF-induced formation of microvessels by human RECs. The basement membrane-like substrate, Matrigel (Becton-Dickinson, Franklin Lakes, N.J.), was used to induce vessel-like tube formation from human RECs as in previous studies with other cell types (Lee et al., Cancer Lett 208: 89 (2004)). Briefly, 300 μL of Matrigel was pipetted into 24 well plates and allowed to gel at 37° C. for 30 minutes. Human RECs were briefly trypsinized and plated onto the layer of Matrigel at an approximate density of 25,000 cells/cm^2. VEGF (50 ng/mL in PBS) with either DMSO or an SK inhibitor was added to the media immediately. After 18 hours at 37° C., images were digitally captured with a Retiga Ex camera with bright-field microscopy using a Nikon Eclipse TE300 microscope.

[2] = tested on: VEGF-induced vascular permeability; experiment: VEGF-induced vascular leakage (Miles assay) in nude mice; format: in vivo, mouse; settings: 100 mg/kg intraperitoneal, FIG. 7A
phosphorylated ERK1/2 = experiment: Western analysis of phosphorylated ERK1/2 in human RECs; format: cell-based
Procedure: Western Blotting. Protein concentrations were determined using the fluorescamine assay (Bohlen et al., Arch Biochem Biophys 155: 213 (1973)) with bovine serum albumin as the standard. Samples were normalized for equal amounts of protein per lane (100 μg), separated by sodium dodecylsulfate-polyacrylamide gel electrophoresis and electrotransferred to nitrocellulose membranes. For SK analyses, membranes were blocked with 5% nonfat milk in Tris-buffered saline with Tween 20 and probed with an anti-SK rabbit polyclonal antibody at a 1:50 dilution, washed and incubated with […] antibodies conjugated to horseradish peroxidase (1 hr in 3% nonfat milk). The blots were then washed 4 times for 5 minutes at room temperature, developed with SuperSignal development reagents (Pierce Biotechnology, Inc., Rockford, Ill.) and exposed to Kodak XAR film. […]
Western analyses were conducted to evaluate the effects of Compound II on signaling proteins known to be regulated in endothelial cells by VEGF or TNFα. […] Cell lysates from cells treated with VEGF for 15 minutes were then analyzed for levels of phosphorylated ERK1/2 as a measure of signaling through the Ras-mediated proliferation pathway. Samples from cells treated with TNFα were analyzed for activation of NFκB, i.e. phosphoNFκB, and the down-stream proteins, cyclooxygenase-2 (Cox-2), E-selectin and VCAM-1. […]

endogenous SK [3] = experiment: Cellular SK activity in bovine retinal endothelial cells; format: cell-based; settings: 25 μg/mL (approximately 80 μM), 4 hours
Procedure: FIG. 3. Inhibition of cellular SK activity in RECs. Bovine retinal endothelial cells were incubated with 20 μM dimethylsphingosine (DMS) or 25 μg/mL Compound I, Compound II or Compound V (approximately 80 μM for each compound) for 4 hours before the addition of 0.4 μCi of [^3H]sphingosine. After 15 minutes, cells were lysed and extracted with chloroform: methanol. The total amounts of [^3H]sphingosine in the organic phase and [^3H]S1P in the aqueous phase were then determined. Values represent the mean±SD of duplicate samples in a typical experiment.
as §1
A cell-based assay in which the phosphorylation of exogenously added [^3H]sphingosine to [^3H]S1P by endogenous SK can be quantified (French et al., Cancer Res 63: 5962 (2003)) was used to evaluate the effects of test compounds on the activity of SK in intact cells. In this assay, cells are incubated with [^3 H]sphingosine for an appropriate period of time, and then [^3H]sphingosine and [^3H]S1P (formed by endogenous SK activity) are separated by extraction and levels of both species are determined by scintillation counting. We have used a number of cell lines in this assay to confirm that the SK inhibitors are active in multiple intact cell systems. For example, human umbilical vein endothelial cells (HUVECs) are commonly used as a model of human vasculature. […] Similarly, the enzymatic activity of SK in bovine RECs, and its sensitivity to SK inhibitors were assessed. […] Each of inhibitors of SK (Compound I, Compound II and Compound V) was also active against the endogenous SK activity in the bovine RECs.

endogenous SK [4] = experiment: Cellular S1P formation assay in HUVECs; format: cell-based, human; settings: read-out: drug concentration that decreases S1P formation by 50%
Procedure: FIG. 2. Inhibition of S1P production in HUVECs by SK inhibitors. […] After 15 minutes, cells were lysed and extracted with chloroform: methanol, and the amounts of [^3H]sphingosine in the organic phase and [^3H]S1P in the aqueous phase were then determined. Values represent the mean±sd SK activity.
as §1, with “In some assays, the cells were serum-starved for 24 hours and then treated with VEGF (50 ng/mL) alone or in the presence of an SK inhibitor for an additional 12 hours.” left out
A cell-based assay in which the phosphorylation of exogenously added [^3H]sphingosine to [^3H]S1P by endogenous SK can be quantified (French et al., Cancer Res 63: 5962 (2003)) was used to evaluate the effects of test compounds on the activity of SK in intact cells. […] Similarly, the enzymatic activity of SK in bovine RECs, and its sensitivity to SK inhibitors were assessed. […]

- IC50 (endogenous SK [1]): 0.19 µM
- IC50 (endogenous SK [4]): 0.2 µM
SMILES: Oc1ccc(Nc2nc(-c3ccc(Cl)cc3)cs2)cc1 [Compound II]
- formation of networks and tubes (human RECs): marked reduction
- inhibition of the in vivo vascular leakage response to VEGF [2]: more than 80%
- VEGF-promoted phosphorylation of ERK1/2 (phosphorylated ERK1/2; VEGF 50 ng/mL, 15 minutes): completely abrogated
- residual pERK1/2 in serum-starved cells (phosphorylated ERK1/2; human RECs, no VEGF): eliminated
- endogenous SK activity in bovine RECs (endogenous SK [3]): active
